Reference: the supplement of paper PMC4862054

Columns and labels:
CAL-51 [1] = test: drug sensitivity score (DSS), CellTiter-Blue viability (DSS (AUC-based score)); higher = stronger viability inhibition; extreme values may be limits of the assay; conditions: incubation time: 72 h
Description: (§1)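 DSRT with the CellTiter-Blue (resazurin reduction) viability readout, fluorescence 560/590 nm, 72 h incubation. Plates were normalised to DMSO and benzethonium chloride controls. DSS is computed from the area under the fitted dose-response curve (5 or 9 concentrations).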

MFM-223 = test: as above; conditions: incubation time: 72 h
Description: as §1

MDA-MB-453 [2] = test: as above; conditions: incubation time: 72 h
Description: as §1

DU-4475 [3] = test: as above; conditions: incubation time: 72 h
Description: as §1

MDA-MB-436 = test: as above; conditions: incubation time: 72 h
Description: as §1

BT-549 = test: as above; conditions: incubation time: 72 h
Description: as §1

Hs578T = test: as above; conditions: incubation time: 72 h
Description: as §1

MDA-MB-468 = test: as above; conditions: incubation time: 72 h
Description: as §1

SK-BR-3 = test: as above; conditions: incubation time: 72 h
Description: as §1

HCC1937 = test: as above; conditions: incubation time: 72 h
Description: as §1

HDQ-P1 [4] = test: as above; conditions: incubation time: 72 h
Description: as §1

CAL-85-1 [5] = test: as above; conditions: incubation time: 72 h
Description: as §1

CAL-148 [6] = test: as above; conditions: incubation time: 72 h
Description: as §1

HCC1599 = test: as above; conditions: incubation time: 72 h
Description: as §1

HCC1143 = test: as above; conditions: incubation time: 72 h
Description: as §1

CAL-120 = test: as above; conditions: incubation time: 72 h
Description: as §1

MDA-MB-231 = test: as above; conditions: incubation time: 72 h
Description: as §1

BT-474 = test: as above; conditions: incubation time: 72 h
Description: as §1

CAL-51 [7] = test: normalised viability (% of control), CellTiter-Blue; higher = more viable cells (about 100 = DMSO control); conditions: 3000 nM; incubation time: 72 h
Description: (§2)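 DSRT, CellTiter-Blue viability, 72 h incubation. Signal is normalised to DMSO and benzethonium chloride controls. Value is the normalised response at dose 8.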

MDA-MB-453 [8] = test: as above; conditions: 3000 nM; incubation time: 72 h
Description: as §2

DU-4475 [9] = test: as above; conditions: 3000 nM; incubation time: 72 h
Description: as §2

HDQ-P1 [10] = test: as above; conditions: 3000 nM; incubation time: 72 h
Description: as §2

CAL-85-1 [11] = test: as above; conditions: 3000 nM; incubation time: 72 h
Description: as §2

CAL-148 [12] = test: as above; conditions: 3000 nM; incubation time: 72 h
Description: as §2

MDA-MB-453 [13] = test: as above; conditions: 10000 nM; incubation time: 72 h
Description: (§3)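 DSRT, CellTiter-Blue viability, 72 h incubation. Signal is normalised to DMSO and benzethonium chloride controls. Value is the normalised response at dose 9.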

DU-4475 [14] = test: as above; conditions: 10000 nM; incubation time: 72 h
Description: as §3

HDQ-P1 [15] = test: as above; conditions: 10000 nM; incubation time: 72 h
Description: as §3

SMILES	drug sensitivity score (CAL-51 [1])	drug sensitivity score (MFM-223)	drug sensitivity score (MDA-MB-453 [2])	drug sensitivity score (DU-4475 [3])	drug sensitivity score (MDA-MB-436)	drug sensitivity score (BT-549)	drug sensitivity score (Hs578T)	drug sensitivity score (MDA-MB-468)	drug sensitivity score (SK-BR-3)	drug sensitivity score (HCC1937)	drug sensitivity score (HDQ-P1 [4])	drug sensitivity score (CAL-85-1 [5])	drug sensitivity score (CAL-148 [6])	drug sensitivity score (HCC1599)	drug sensitivity score (HCC1143)	drug sensitivity score (CAL-120)	drug sensitivity score (MDA-MB-231)	drug sensitivity score (BT-474)	normalised viability (CAL-51 [7])	normalised viability (MDA-MB-453 [8])	normalised viability (DU-4475 [9])	normalised viability (HDQ-P1 [10])	normalised viability (CAL-85-1 [11])	normalised viability (CAL-148 [12])	normalised viability (MDA-MB-453 [13])	normalised viability (DU-4475 [14])	normalised viability (HDQ-P1 [15])
C[C@H]1C[C@@H]2[C@H]([C@@H](O)C[C@@]3(C)[C@H]2CC[C@]3(O)C(=O)CO)[C@@]2(C)C=CC(=O)C=C12 [Methylprednisolone]	0	0	6.93	0	0	3.25	0	0	0	0	0	0	0	0	0	0	0	0	105%	74.1%	97.9%	105%	101%	96.8%	75.7%	87.4%	123%
Oc1ncc(N(CCCl)CCCl)c(O)n1 [Uracil mustard]	0	0	0	0	0	0	0	0	0	3.7	0	0	0	0	0	0	0	0	99.6%	92.8%	105%	115%	93.8%	113%	104%	94.9%	110%
COc1cc2nccc(Oc3ccc(NC(=O)Nc4cc(C)on4)c(Cl)c3)c2cc1OC [Tivozanib]	2.51	10.4	5.3	0	0	2.11	2.98	0	1.12	0	5.92	0	0	0.494	0	2.1	3.77	2.36	80%	51.9%	118%	67.6%	92.8%	94%	28.3%	107%	55.9%
